Assay results taken from the supplement of paper PMC10307832.

Key:
Assay in all cases: relative viability (nuclei count vs DMSO), 5 days (fraction); higher = more cells survive
Linsitinib + Vorinostat = compound: C[C@]1(O)C[C@@H](c2nc(-c3ccc4ccc(-c5ccccc5)nc4c3)c3c(N)nccn32)C1 [Linsitinib] + O=C(CCCCCCC(=O)Nc1ccccc1)NO [Vorinostat] (partner 1 µM)
Method in brief: (§1)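 After 5 days of treatment, lung cancer cells in 1536-well plates were fixed and stained in a single step (final 0.05% Triton X-100, 1% formaldehyde, 1 ug/ml Hoechst) and their nuclei counted on 4× images. Treatment had been applied by pin tool the day after seeding as one drug alone or as a fixed anchor-drug dose with five library-drug doses (not always all listed) in √10 steps. Relative viability is the nuclei count of treated wells divided by that of vehicle wells, and values are medians of duplicate plates.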

Linsitinib + Pemetrexed = compound: C[C@]1(O)C[C@@H](c2nc(-c3ccc4ccc(-c5ccccc5)nc4c3)c3c(N)nccn32)C1 [Linsitinib] + Nc1nc2[nH]cc(CCc3ccc(C(=O)N[C@@H](CCC(=O)O)C(=O)O)cc3)c2c(=O)[nH]1 [Pemetrexed] (partner 0.2 µM)
Method in brief: as §1

Linsitinib + Lapatinib = compound: C[C@]1(O)C[C@@H](c2nc(-c3ccc4ccc(-c5ccccc5)nc4c3)c3c(N)nccn32)C1 [Linsitinib] + CS(=O)(=O)CCNCc1ccc(-c2ccc3ncnc(Nc4ccc(OCc5cccc(F)c5)c(Cl)c4)c3c2)o1 [Lapatinib] (partner 2 µM)
Method in brief: as §1

Ispinesib + Luminespib = compound: Cc1ccc(C(=O)N(CCCN)[C@@H](c2nc3cc(Cl)ccc3c(=O)n2Cc2ccccc2)C(C)C)cc1 [Ispinesib] + CCNC(=O)c1noc(-c2cc(C(C)C)c(O)cc2O)c1-c1ccc(CN2CCOCC2)cc1 [Luminespib] (partner 0.01 µM)
Method in brief: as §1

## NCI-H1355
Linsitinib + Vorinostat; first compound 0.01 µM
  relative viability: 0.66
Linsitinib + Vorinostat; first compound 0.03162 µM
  relative viability: 0.65
Linsitinib + Vorinostat; first compound 0.1 µM
  relative viability: 0.574
Linsitinib + Vorinostat; first compound 0.3162 µM
  relative viability: 0.444
Linsitinib + Vorinostat; first compound 1 µM
  relative viability: 0.311
Linsitinib + Pemetrexed; first compound 0.01 µM
  relative viability: 1.11
Linsitinib + Pemetrexed; first compound 0.03162 µM
  relative viability: 0.759
Linsitinib + Pemetrexed; first compound 0.1 µM
  relative viability: 0.945
Linsitinib + Pemetrexed; first compound 0.3162 µM
  relative viability: 0.798
Linsitinib + Pemetrexed; first compound 1 µM
  relative viability: 0.637
Linsitinib + Lapatinib; first compound 0.01 µM
  relative viability: 1.04
Linsitinib + Lapatinib; first compound 0.03162 µM
  relative viability: 0.983
Linsitinib + Lapatinib; first compound 0.1 µM
  relative viability: 0.865
Linsitinib + Lapatinib; first compound 0.3162 µM
  relative viability: 0.547
Linsitinib + Lapatinib; first compound 1 µM
  relative viability: 0.546
Ispinesib + Luminespib; first compound 0.001 µM
  relative viability: 0.702
Ispinesib + Luminespib; first compound 0.003162 µM
  relative viability: 0.729
Ispinesib + Luminespib; first compound 0.01 µM
  relative viability: 0.881
Ispinesib + Luminespib; first compound 0.03162 µM
  relative viability: 0.598
Ispinesib + Luminespib; first compound 0.1 µM
  relative viability: 0.488

## COR-L23
Linsitinib + Vorinostat; first compound 0.01 µM
  relative viability: 0.431
Linsitinib + Vorinostat; first compound 0.03162 µM
  relative viability: 0.267
Linsitinib + Vorinostat; first compound 0.1 µM
  relative viability: 0.402
Linsitinib + Vorinostat; first compound 0.3162 µM
  relative viability: 0.357
Linsitinib + Vorinostat; first compound 1 µM
  relative viability: 0.302
Linsitinib + Pemetrexed; first compound 0.01 µM
  relative viability: 0.202
Linsitinib + Pemetrexed; first compound 0.03162 µM
  relative viability: 0.184
Linsitinib + Pemetrexed; first compound 0.1 µM
  relative viability: 0.189
Linsitinib + Pemetrexed; first compound 0.3162 µM
  relative viability: 0.184
Linsitinib + Pemetrexed; first compound 1 µM
  relative viability: 0.18
Linsitinib + Lapatinib; first compound 0.01 µM
  relative viability: 0.798
Linsitinib + Lapatinib; first compound 0.03162 µM
  relative viability: 0.916
Linsitinib + Lapatinib; first compound 0.1 µM
  relative viability: 1.16
Linsitinib + Lapatinib; first compound 0.3162 µM
  relative viability: 0.825
Linsitinib + Lapatinib; first compound 1 µM
  relative viability: 0.944
Ispinesib + Luminespib; first compound 0.001 µM
  relative viability: 0.805
Ispinesib + Luminespib; first compound 0.003162 µM
  relative viability: 0.815
Ispinesib + Luminespib; first compound 0.01 µM
  relative viability: 0.824
Ispinesib + Luminespib; first compound 0.03162 µM
  relative viability: 0.356
Ispinesib + Luminespib; first compound 0.1 µM
  relative viability: 0.215

## HCC-44
Linsitinib + Vorinostat; first compound 0.01 µM
  relative viability: 1.02
Linsitinib + Vorinostat; first compound 0.03162 µM
  relative viability: 1.01
Linsitinib + Vorinostat; first compound 0.1 µM
  relative viability: 1.03
Linsitinib + Vorinostat; first compound 0.3162 µM
  relative viability: 0.734
Linsitinib + Vorinostat; first compound 1 µM
  relative viability: 1.01
Linsitinib + Pemetrexed; first compound 0.01 µM
  relative viability: 0.624
Linsitinib + Pemetrexed; first compound 0.03162 µM
  relative viability: 0.511
Linsitinib + Pemetrexed; first compound 0.1 µM
  relative viability: 0.618
Linsitinib + Pemetrexed; first compound 0.3162 µM
  relative viability: 0.555
Linsitinib + Pemetrexed; first compound 1 µM
  relative viability: 0.6
Linsitinib + Lapatinib; first compound 0.01 µM
  relative viability: 1.02
Linsitinib + Lapatinib; first compound 0.03162 µM
  relative viability: 0.859
Linsitinib + Lapatinib; first compound 0.1 µM
  relative viability: 0.983
Linsitinib + Lapatinib; first compound 0.3162 µM
  relative viability: 0.357
Linsitinib + Lapatinib; first compound 1 µM
  relative viability: 0.63
Ispinesib + Luminespib; first compound 0.001 µM
  relative viability: 1.25
Ispinesib + Luminespib; first compound 0.003162 µM
  relative viability: 1.07
Ispinesib + Luminespib; first compound 0.01 µM
  relative viability: 1.02
Ispinesib + Luminespib; first compound 0.03162 µM
  relative viability: 1.1
Ispinesib + Luminespib; first compound 0.1 µM
  relative viability: 0.555

## A-427
Linsitinib + Vorinostat; first compound 0.01 µM
  relative viability: 0.859
Linsitinib + Vorinostat; first compound 0.03162 µM
  relative viability: 0.905
Linsitinib + Vorinostat; first compound 0.1 µM
  relative viability: 0.892
Linsitinib + Vorinostat; first compound 1 µM
  relative viability: 0.808
Linsitinib + Pemetrexed; first compound 0.01 µM
  relative viability: 0.951
Linsitinib + Pemetrexed; first compound 0.03162 µM
  relative viability: 1.03
Linsitinib + Pemetrexed; first compound 0.1 µM
  relative viability: 0.986
Linsitinib + Pemetrexed; first compound 1 µM
  relative viability: 0.866
Linsitinib + Lapatinib; first compound 0.01 µM
  relative viability: 1.02
Linsitinib + Lapatinib; first compound 0.03162 µM
  relative viability: 0.723
Linsitinib + Lapatinib; first compound 0.1 µM
  relative viability: 1.06
Linsitinib + Lapatinib; first compound 1 µM
  relative viability: 1.08
Ispinesib + Luminespib; first compound 0.001 µM
  relative viability: 1
Ispinesib + Luminespib; first compound 0.003162 µM
  relative viability: 1.11
Ispinesib + Luminespib; first compound 0.01 µM
  relative viability: 1.33
Ispinesib + Luminespib; first compound 0.03162 µM
  relative viability: 0.352
Ispinesib + Luminespib; first compound 0.1 µM
  relative viability: 0.389

## NCI-H520
Linsitinib + Vorinostat; first compound 0.01 µM
  relative viability: 0.802
Linsitinib + Vorinostat; first compound 0.03162 µM
  relative viability: 0.689
Linsitinib + Vorinostat; first compound 0.1 µM
  relative viability: 0.722
Linsitinib + Vorinostat; first compound 1 µM
  relative viability: 0.695
Linsitinib + Pemetrexed; first compound 0.01 µM
  relative viability: 0.623
Linsitinib + Pemetrexed; first compound 0.03162 µM
  relative viability: 0.377
Linsitinib + Pemetrexed; first compound 0.1 µM
  relative viability: 0.762
Linsitinib + Pemetrexed; first compound 1 µM
  relative viability: 0.598
Linsitinib + Lapatinib; first compound 0.01 µM
  relative viability: 0.934
Linsitinib + Lapatinib; first compound 0.03162 µM
  relative viability: 0.462
Linsitinib + Lapatinib; first compound 0.1 µM
  relative viability: 0.979
Linsitinib + Lapatinib; first compound 1 µM
  relative viability: 0.929
Ispinesib + Luminespib; first compound 0.001 µM
  relative viability: 0.24
Ispinesib + Luminespib; first compound 0.003162 µM
  relative viability: 0.17
Ispinesib + Luminespib; first compound 0.01 µM
  relative viability: 0.207
Ispinesib + Luminespib; first compound 0.03162 µM
  relative viability: 0.206
Ispinesib + Luminespib; first compound 0.1 µM
  relative viability: 0.204
